Patent publication US7220554B2, “Methods for identifying inhibitors” (priority 2003, dated 2007)
Entries after “also recorded” stand apart in the source; their conditions may differ. Non-standard residues stand in square brackets, D forms with d. Residues, ends and D or L forms follow the SMILES beside them. *: point of attachment. Nle = CCCC[C@H](N)C(=O)O; Cbz = O=C(OCc1ccccc1)*; OtBu = CC(C)(C)O*

Assays:
[1] = system: Vif-mediated elimination of YFP-APOBEC3G; assay: Fluorescence of YFP-APOBEC3G in 293T cultures cotransfected with Vif; type: cell-based, human; details: ALLN for eight hours
From the text: Using methods essentially similar to those described in Example 1, a vector was constructed that encodes a chimeric protein containing the yellow fluorescent protein (YFP) at the amino terminus and APOBEC3G at the carboxyl terminus (YFP-APOBEC3G; SEQ ID NOs: 3 and 4). Cotransfection of plasmids that encode this chimera and Vif into human 293T cell cultures results in only a few fluorescent cells, consistent with a Vif-induced degradation (FIG. 13A, top two panels). In contrast, cotransfection with a vector lacking Vif results in a much larger fraction of fluorescent cells.

APOBEC3G-Myc = assay: Immunofluorescence microscopy of Vif and APOBEC3G-Myc in cotransfected COS7 cells; type: cell-based, African green monkey; details: ALLN in DMSO, FIG. 5B
Protocol: For immunofluorescence, COS7 cells were used because they are more adherent than 293T cells. Cells cultured in Permanox chamber slides (Nalge Nunc International) were fixed in 5% formaldehyde and 2% sucrose in PBS (Invitrogen) at room temperature for 20 minutes, and permeabilized with 1% Triton X-100 in PBS with 10% sucrose for 30 minutes. Primary antibodies were Vif antiserum #2221 or the Myc-specific monoclonal antibody 9E10. Secondary fluorescent antibodies were Alexa Fluor 488 goat anti-rabbit IgG(H+L) and Alexa Fluor 594 goat anti-mouse IgG (H+L) (Molecular Probes Inc), which reacted only with their species-specific primary antibodies. Slides were mounted in FluoroGuard (BioRad Laboratories), and observed with a Zeiss Axiovert 200M deconvolution microscope. The percentage of double-positive cells in FIG. 5B is defined as the percentage of the Vif-positive cells and that contained APOBEC3G-Myc. RNA extraction and Northern blot analyses were previously described (Tailor et al., Proc. Natl. Acad. Sci. USA 96, 927–932, 1999). A cDNA probe for the S2 ribosomal protein was used as a loading control.

[2] = system: total cellular polyubiquitinated proteins; assay: Western blot of total cell culture extracts with ubiquitin-specific antibody; type: cell-based, human; details: 293T; for amounts of total polyubiquitinated proteins (inhibitor activity in cultures with and without Vif): 50 μM inhibitor; for quantities of total cellular polyubiquitinated proteins (inhibitor activity in both cultures): preincubated 6 hours, FIG. 9B
From the text: (§1) Expression vectors: pHIV-gpt(wt) and its derivative pHIV-gpt(Δvif) were previously described (Madani & Kabat, J. Virol. 72, 10251–10255, 1998; Page et al., J Virol 64, 5270–5276, 1990; Madani & Kabat, J. Virol. 74, 5982–5987, 2000). pcDNA3.1-Vif was donated by D. Gabuzda (Dana-Farber Cancer Institute, Harvard, Boston, Mass.). Rev-dependent plasmids for expression of the Vif mutants Δ2, Δ5, Δ6, Δ7, Δ9, Δ10, Δ12 and Δ13 (Simon et al., J. Virol. 73, 2675–2681, 1999) were provided by M. Malim (Medical Research Council, Cambridge, UK) and were coexpressed with pHIV-gpt(Δvif). APOBEC3G cDNA was cloned from H9 cells (nonpermissive) by reverse transcriptase-PCR (Barnes, Proc. Natl. Acad. Sci. USA 91, 2216–2220, 1994; Sambrook et al., Molecular Cloning. A Laboratory Manual, Chapter 14, 14.5–14.34., CSHL Press, Cold Spring Harbor, 1989) using primers complementary to the 5′ and 3′ ends of APOBEC3G coding region (Sheehy et al., Nature 418, 646–650, 2002) (upstream primer, 5′-[…]-3′ (SEQ ID NO: 15) containing an XhoI restriction site [underlined]; downstream primer, 5′-[…]-3′ (SEQ ID NO: 16) containing a SfuI restriction site [underlined]). The cDNA was cloned between XhoI and SfuI into the pcDNA3.1/Myc-His C mammalian expression vector (Invitrogen) to obtain the pcDNA3.1-APOBEC3G-Myc vector. The pSVIIIEnv vector was used to pseudotype HIV-gpt virions (Helseth et al., J. Virol. 64, 2416–2420, 1990). Transfections employed PolyFect reagent (Qiagen, Inc.) according to the manufacturer's instructions, with equimolar ratios of all plasmids and with harvests after 36 hours unless otherwise mentioned. Viruses: HIV-gpt virions were produced and titered as previously described (Page et al., J Virol 64, 5270–5276, 1990; Page et al., J Virol 66, 524–533, 1992; Platt et al., J. Virol. 75, 12266–12278, 2001). For viral purifications, 27 ml of the virus-containing media from 293T cells were pelleted through 2 ml of a 20% sucrose at 100,000 g for 1.5 hours. Virions were resuspended in TSE (0.1 M NaCl, 1 mM EDTA, 0.01M Tris-Cl, pH 7.4), and centrifuged to equilibrium in 5 ml 20–60% sucrose gradients in TSE at 200,000 g for 2.5 hours. Virus-containing fractions were detected by immunoblotting using HIV Immunoglobulin serum (AIDS Research & Reference Reagent Program, Division of AIDS, NIAID, NIH: contributed by NABI and NHLBI). Peak fractions were pooled, diluted with TSE, and pelleted through 20% sucrose at 100,000 g for two hours. Analysis of proteins and RNAs: Extracts of cotransfected 293T and COS7 cultures were prepared using either TX (1% Triton X-100, 150 mM NaCl, 10 mM Tris-Cl, pH 7.5, 1 mM MgCl) or RIPA (50 mM Tris-Ci pH 7.4, 1% Nonidet P40, 0.1% sodium deoxycholate, 150 mM NaCl) buffers with complete protease inhibitors (Roche), followed by centrifugation at 1,500 g for 5 minutes to sediment nuclei. Extracts were adjusted to equivalent protein concentrations using the Bradford reagent (BioRad Laboratories), and equal aliquots were then used for Western immunoblotting (Marin et al., J. Virol. 74, 8085–8093, 2000) or for immunoprecipitations (Klippel et al., Mol. Cell. Biol. 14, 2675–2685, 1994) using the antibodies HIV-1 HXB2 Vif rabbit antiserum #2221, (AIDS Research and Reference Reagent Program, Division of AIDS, NIAID, NIH: contributed by Dr. D. Gabuzda), Myc-specific monoclonal antibody clone 9E10 (Sigma) (Marin et al., J. Virol. 74, 8085–8093, 2000), or the ubiquitin-specific mouse monoclonal antibody (Zymed). […] Where indicated, cultures were preincubated with 50 μM concentrations of the proteasome inhibitors ALLN, MG-132, or Proteasome Inhibitor-I (Calbiochem).

[3] = system: polyubiquitinated APOBEC3G; assay: Ni-NTA purification of APOBEC3G-Myc in 8M urea and immunoblotting with ubiquitin-specific antibody; type: cell-based, human; details: 293T; ALLN 10 hours; FIG. 11B
From the text: Expression vectors: pHIV-gpt(wt) and its derivative pHIV-gpt(Δvif) were previously described (Madani & Kabat, J. Virol. 72, 10251–10255, 1998; Page et al., J Virol 64, 5270–5276, 1990; Madani & Kabat, J. Virol. 74, 5982–5987, 2000). pcDNA3.1-Vif was donated by D. Gabuzda (Dana-Farber Cancer Institute, Harvard, Boston, Mass.). Rev-dependent plasmids for expression of the Vif mutants Δ2, Δ5, Δ6, Δ7, Δ9, Δ10, Δ12 and Δ13 (Simon et al., J. Virol. 73, 2675–2681, 1999) were provided by M. Malim (Medical Research Council, Cambridge, UK) and were coexpressed with pHIV-gpt(Δvif). APOBEC3G cDNA was cloned from H9 cells (nonpermissive) by reverse transcriptase-PCR (Barnes, Proc. Natl. Acad. Sci. USA 91, 2216–2220, 1994; Sambrook et al., Molecular Cloning. A Laboratory Manual, Chapter 14, 14.5–14.34., CSHL Press, Cold Spring Harbor, 1989) using primers complementary to the 5′ and 3′ ends of APOBEC3G coding region (Sheehy et al., Nature 418, 646–650, 2002) (upstream primer, 5′-[…]-3′ (SEQ ID NO: 15) containing an XhoI restriction site [underlined]; downstream primer, 5′-[…]-3′ (SEQ ID NO: 16) containing a SfuI restriction site [underlined]). […] Virus-containing fractions were detected by immunoblotting using HIV Immunoglobulin serum (AIDS Research & Reference Reagent Program, Division of AIDS, NIAID, NIH: contributed by NABI and NHLBI). […]

[4] = system: Vif-dependent down modulation of APOBEC3G-Myc; assay: Western immunoblotting of APOBEC3G-Myc in cotransfected 293T cultures that contain or lack Vif; type: cell-based, human; details: for quantity of APOBEC3G-Myc in the cultures that contained Vif: incubated 10 hours, FIG. 11A
From the text: as §1

SMILES | cells with YFP-APOBEC3G fluorescence in the culture that contains Vif [1] | percentage of cells that coexpressed wild-type Vif and APOBEC3G-Myc (APOBEC3G-Myc) | amounts of total polyubiquitinated proteins (inhibitor activity in cultures with and without Vif) [2] | quantities of total cellular polyubiquitinated proteins (inhibitor activity in both cultures) [2] | amount of polyubiquitinated APOBEC3G-Myc, effect of proteasome inhibitor [3] | control protein α-tubulin ([4]; 50 μM inhibitor, 6–10 hour) | quantities of APOBEC3G-Myc in the cultures that contained Vif ([4]; 50 μM inhibitor, 6–10 hour) | quantities of APOBEC3G-Myc in the cultures that lacked Vif ([4]; 50 μM inhibitor, 6–10 hour) | quantity of APOBEC3G-Myc in the cultures that contained Vif [4] | quantities of APOBEC3G-Myc in the cultures that contained Vif ([4]; preincubated 6 hours, FIG. 9B) | quantities of APOBEC3G-Myc in the cultures that lacked Vif ([4]; preincubated 6 hours, FIG. 9B)
CCCC[C@@H](C=O)NC(=O)[C@H](CC(C)C)NC(=O)[C@H](CC(C)C)NC(C)=O [ALLN] (Ac-Leu-Leu-[Nle]-aldehyde) | reverses the Vif-dependent elimination of the chimeric protein; also recorded: blocks Vif-mediated elimination of YFP-APOBEC3G; also recorded: accumulate in many more cells | dramatic increase in coexpression; also recorded: this decrease was alleviated by ALLN | active in both cultures | active in both cultures | substantially increased; also recorded: greatly increased | no effect | increased the quantities of APOBEC3G-Myc | not in the cultures that lacked Vif | increased the quantity of APOBEC3G-Myc | increased the quantities of APOBEC3G-Myc | not in the cultures that lacked Vif
CC(C)C[C@@H](C=O)NC(=O)[C@H](CC(C)C)NC(=O)[C@H](CC(C)C)NC(=O)OCc1ccccc1 [MG-132] (Cbz-Leu-Leu-Leu-aldehyde) | – | – | active in both cultures | active in both cultures | – | no effect | increased the quantities of APOBEC3G-Myc | not in the cultures that lacked Vif | increased the quantity of APOBEC3G-Myc | increased the quantities of APOBEC3G-Myc | not in the cultures that lacked Vif
CC[C@H](C)[C@H](NC(=O)OCc1ccccc1)C(=O)N[C@@H](CCC(=O)OC(C)(C)C)C(=O)N[C@@H](C)C(=O)N[C@H](C=O)CC(C)C [Proteasome Inhibitor-I] (Cbz-IE(OtBu)AL-aldehyde) | – | – | active in both cultures | active in both cultures | – | no effect | increased the quantities of APOBEC3G-Myc | not in the cultures that lacked Vif | increased the quantity of APOBEC3G-Myc | increased the quantities of APOBEC3G-Myc | not in the cultures that lacked Vif
